Results reported in publication PMC5949348, “The Metabolism of Separase Inhibitor Sepin-1 in Human, Mouse, and Rat Liver Microsomes” (Frontiers in Pharmacology, 2018).
Where “and” joins values, the source holds several entries; their conditions need not be identical. Equal values may be shown once. Read-outs that look alike come from different tables or passages of the source.

Legend:
Type in all cases: in vitro ADME
[1] = Metabolism of sepin-1 in human liver microsomes; conditions: 30 μM sepin-1, NADPH 1.0 mM, 30 min
Protocol: Incubations were conducted in 1× phosphate-buffered saline (1× PBS, pH 7.4), containing 30 μM sepin-1, 1.0 mg HLM, MLM, RLM, or 2 pmol of each cDNA-expressed P450 enzyme (control, CYP1A2, 2A6, 2B6, 2C8, 2C9, 2C19, 2D6, 2E1, and CYP3A4) in a final volume of 190 μl. After 5 min of pre-incubation at 37°C, the reaction was initiated by adding 10 μl of 20 mM NADPH (final concentration 1.0 mM) and continued for 30 min, with shaking at 37°C. Incubations lacking NADPH served as controls. Reactions were terminated with 200 μl of ice-cold methanol, followed by vortexing for 30 s and centrifuging at 15,000 × g for 15 min. Each supernatant was transferred to an auto sampler vial, and 5.0 μl was injected on to UHPLC coupled with a QTOFMS system for metabolite analysis. Incubations were conducted in quadruplicate for HLM, in triplicate for MLM and RLM, and in duplicate for cDNA-expressed P450 enzymes.
The separation of sepin-1 and its metabolites was achieved using a 1260 Infinity Binary LC System (Agilent Technologies, Santa Clara, CA, United States) equipped with 100 mm × 2.1 mm (Agilent XDB C18) column. The column temperature was maintained at 40°C. The flow rate was 0.3 ml/min, with a gradient ranging from 2% to 98% aqueous acetonitrile containing 0.1% formic acid in a 15-min run. QTOFMS was operated in a positive mode with electrospray ionization. Ultra-high pure nitrogen was applied as the drying gas (12 l/min) and the collision gas. The drying gas temperature was set at 325°C, and the nebulizer pressure was kept at 35 psi. The capillary voltages were set at 3.5 kV. […]
Mass chromatograms and mass spectra were acquired by MassHunter Workstation Data Acquisition Software (Agilent, Santa Clara, CA, United States) in centroid and profile formats from m/z 100 to 1000. […] For the QQQMS data, QQQ Quantitative Analysis Software (Agilent, Santa Clara, CA, United States) was used for metabolite analysis. […] Statistical differences between two groups were determined by Student’s t-test.

CYP2C8 = target: T1, CYP2C8 (Homo sapiens, UniProt P10632); assay: Inhibition of sepin-1 on CYP2C8
T1 construct: purchased XenoTech
T1 sequence (P10632 1-490): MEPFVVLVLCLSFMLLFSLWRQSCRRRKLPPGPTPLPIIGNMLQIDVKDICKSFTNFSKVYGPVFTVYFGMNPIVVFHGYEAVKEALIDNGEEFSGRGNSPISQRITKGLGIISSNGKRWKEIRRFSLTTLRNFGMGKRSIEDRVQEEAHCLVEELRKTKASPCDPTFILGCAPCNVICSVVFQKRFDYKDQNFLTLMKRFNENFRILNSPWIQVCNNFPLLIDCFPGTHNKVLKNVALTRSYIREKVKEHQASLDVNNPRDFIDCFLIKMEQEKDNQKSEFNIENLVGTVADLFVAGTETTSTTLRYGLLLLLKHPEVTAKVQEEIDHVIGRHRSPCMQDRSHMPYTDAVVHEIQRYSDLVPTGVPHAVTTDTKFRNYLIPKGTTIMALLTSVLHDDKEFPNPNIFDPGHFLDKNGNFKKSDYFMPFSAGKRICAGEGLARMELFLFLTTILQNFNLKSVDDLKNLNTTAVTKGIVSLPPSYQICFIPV
Protocol: (§1) Incubations were performed in 1× PBS (pH 7.4), containing 0, 0.156, 0.312, 0.625, 1.25, 2.5, 5, 10, 20, or 40 μM sepin-1, 2 pmol of each cDNA-expressed P450 enzymes, and corresponding substrates: CYP1A2 (phenacetin, 40 μM, 20 min incubation), 2B6 (efavirenz, 20 μM, 30 min), 2C8 (paclitaxel, 10 μM, 30 min), 2C9 (diclofenac, 5 μM, 15 min), 2C19 [(S)-mephenytoin, 40 μM, 20 min], 2D6 (dextromethorphan, 5 μM, 15 min), and CYP3A4 (midazolam, 3 μM, 10 min) in a final volume of 190 μl. After 5 min of pre-incubation at 37°C, the reaction was initiated by adding 10 μl of 20 mM NADPH (final concentration 1.0 mM) and continued for a specific time as presented above with gentle shaking. Incubations without sepin-1 were used as controls. Reactions were terminated by the addition of 200 μl of ice-cold methanol, vortexing for 30 s, and centrifuging at 15,000 × g for 15 min. Each supernatant was transferred to an auto sampler vial and 5.0 μl was injected on to UHPLC coupled with a QQQMS system for the specific metabolite analysis. A MRM method was used. Incubations were conducted in duplicate. Positive controls were performed by using a known specific inhibitor for each of the isoform assays (Supplementary Table S1). […]

CYP2C9 = target: T2, CYP2C9 (Homo sapiens, UniProt P11712); assay: Inhibition of sepin-1 on CYP2C9
T2 construct: purchased XenoTech
Protocol: as §1

CYP2C19 = target: T3, CYP2C19 (Homo sapiens, UniProt P33261); assay: Inhibition of sepin-1 on CYP2C19
T3 construct: purchased XenoTech
Protocol: as §1

CYP3A4 = target: T4, CYP3A4 (Homo sapiens, UniProt P08684); assay: Inhibition of sepin-1 on CYP3A4
T4 construct: purchased XenoTech
Protocol: as §1

T2 sequence (P11712 whole entry): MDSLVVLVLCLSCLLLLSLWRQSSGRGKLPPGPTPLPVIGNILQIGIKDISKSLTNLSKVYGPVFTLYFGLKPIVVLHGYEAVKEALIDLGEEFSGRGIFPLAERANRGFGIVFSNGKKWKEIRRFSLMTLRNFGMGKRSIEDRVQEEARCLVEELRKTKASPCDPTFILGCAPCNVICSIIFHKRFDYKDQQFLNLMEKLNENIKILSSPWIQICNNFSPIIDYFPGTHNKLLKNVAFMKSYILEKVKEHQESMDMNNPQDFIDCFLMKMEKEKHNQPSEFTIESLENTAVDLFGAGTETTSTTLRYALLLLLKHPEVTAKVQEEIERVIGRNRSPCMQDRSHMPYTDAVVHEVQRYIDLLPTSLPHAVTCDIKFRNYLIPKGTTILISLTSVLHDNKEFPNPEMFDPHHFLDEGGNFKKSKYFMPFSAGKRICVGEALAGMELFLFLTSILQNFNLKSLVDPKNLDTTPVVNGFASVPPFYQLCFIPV
T3 sequence (P33261 whole entry): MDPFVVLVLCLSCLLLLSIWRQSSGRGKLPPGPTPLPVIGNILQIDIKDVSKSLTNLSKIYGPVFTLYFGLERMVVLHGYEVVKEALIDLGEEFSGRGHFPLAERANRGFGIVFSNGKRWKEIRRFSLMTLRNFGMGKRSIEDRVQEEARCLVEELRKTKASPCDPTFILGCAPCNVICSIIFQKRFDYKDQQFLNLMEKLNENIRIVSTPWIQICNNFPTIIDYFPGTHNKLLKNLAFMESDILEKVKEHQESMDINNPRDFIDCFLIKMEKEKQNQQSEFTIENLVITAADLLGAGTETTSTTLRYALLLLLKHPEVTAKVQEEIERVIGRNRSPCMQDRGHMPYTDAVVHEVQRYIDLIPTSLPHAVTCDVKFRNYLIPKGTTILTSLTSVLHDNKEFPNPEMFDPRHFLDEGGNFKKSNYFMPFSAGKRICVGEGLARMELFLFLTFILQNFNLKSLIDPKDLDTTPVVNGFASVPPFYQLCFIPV
T4 sequence (P08684 whole entry): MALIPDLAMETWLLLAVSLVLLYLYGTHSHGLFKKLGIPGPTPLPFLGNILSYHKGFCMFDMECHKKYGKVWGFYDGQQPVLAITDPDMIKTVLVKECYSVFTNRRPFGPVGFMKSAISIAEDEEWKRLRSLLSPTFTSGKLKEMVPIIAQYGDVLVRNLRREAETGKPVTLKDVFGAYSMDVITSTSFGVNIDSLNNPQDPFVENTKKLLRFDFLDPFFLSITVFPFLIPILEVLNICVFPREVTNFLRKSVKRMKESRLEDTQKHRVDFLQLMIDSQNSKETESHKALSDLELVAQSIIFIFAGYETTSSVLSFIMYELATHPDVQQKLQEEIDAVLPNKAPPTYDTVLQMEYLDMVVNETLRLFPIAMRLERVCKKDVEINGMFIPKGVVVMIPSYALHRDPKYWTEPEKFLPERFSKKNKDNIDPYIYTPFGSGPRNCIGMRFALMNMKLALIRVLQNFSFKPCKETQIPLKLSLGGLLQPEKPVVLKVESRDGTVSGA

With `CC1(C)[N+]([O-])=c2ccc([N+](=O)[O-])cc2=[N+]1[O-]` [Sepin-1, 2,2-dimethyl-5-nitro-2H-benzimidazole-1,3-dioxide] the “Metabolism of parent in HLM (in words)” value [1] was “metabolized rapidly”, the “Inhibition potency class on CYP2C8” value (CYP2C8; FDA classification bands) was “weak inhibition” and the IC50 (CYP2C8; substrate paclitaxel 10 μM, 30 min, metabolite 6-O-paclitaxel, co-incubation) was > 10 µM and 17.8 µM. For the same compound, the “Inhibition potency class on CYP2C9” value (CYP2C9; FDA classification bands) was “weak inhibition”, the IC50 (CYP2C9; substrate diclofenac 5 μM, 15 min, metabolite 4-O-diclofenac, co-incubation) was > 10 µM and 21.3 µM and the IC50 (CYP2C19; FDA classification bands, read-out: Inhibition potency class on CYP2C19) was 1 to 10 µM. For the same compound, the IC50 (CYP2C19; substrate (S)-mephenytoin 40 μM, 20 min, metabolite 4-O-mephenytoin, co-incubation, read-out: IC50 on CYP2C19) was < 10 µM and 8.9 µM, the IC50 (CYP3A4; FDA classification bands, read-out: Inhibition potency class on CYP3A4) was 1 to 10 µM and the IC50 (CYP3A4; substrate midazolam 3 μM, 10 min, metabolite 1-O-midazolam, co-incubation, read-out: IC50 on CYP3A4) was < 10 µM and 8.7 µM.
